# Reference: patent US20020045574A1, “Glycopeptide antibacterial compounds and methods of using same” (priority 2000, published 2002)
# Columns and labels:
# [1] = system: VISA/MRSA CL 5706; experiment: Strain antibiotic susceptibility phenotype (MIC interpretive standards); assay type: cell-based, S. aureus; details: VISA/MRSA CL 5706 (Mu 50)
# Source text: (§1) The test panel currently includes eight enterococci and 13 staphylococci, which are selected based upon their antibiotic susceptibility profiles. The methicillin-sensitive Staphylococcus aureus (MSSA) strain MB2985 (Smith isolate) is used to assesses the potential for serum protein binding of the compounds. The paired Gram-negative strains ASP #49 (envA−) and ASP #50 (envA+) (M. Salvatore/N. Lee) are included to judge membrane effects. Table 1 presents a detailed description of the strains included in the panel, including some of the sources of the strains of bacteria.
# [2] = system: VISA/MRSA CL 5705; experiment: as above; assay type: cell-based, S. aureus; details: VISA/MRSA CL 5705 (Mu 3)
# Source text: as §1
# [3] = system: MRSA COL; experiment: as above; assay type: cell-based, Staphylococcus aureus
# Source text: as §1
# [4] = system: MSSA MB2985; experiment: as above; assay type: cell-based, Staphylococcus aureus
# Source text: as §1
# [5] = system: MRSA CL 3033; experiment: as above; assay type: cell-based, Staphylococcus aureus
# Source text: as §1
# [6] = system: E. faecium CL 5053 (VanA); experiment: as above; assay type: cell-based
# Source text: as §1
# [7] = system: E. faecium CL 4931 (VanA); experiment: as above; assay type: cell-based
# Source text: as §1
# [8] = system: E. gallinarum CL 4886 (VanC); experiment: as above; assay type: cell-based
# Source text: as §1
# [9] = system: E. faecium RLA1; experiment: as above; assay type: cell-based
# Source text: as §1
# [10] = system: E. faecalis MB2864; experiment: as above; assay type: cell-based
# Source text: as §1
# [11] = system: E. faecalis CL 5244 (VanB); experiment: as above; assay type: cell-based
# Source text: as §1
# [12] = system: E. faecalis CL 4877 (VanB); experiment: as above; assay type: cell-based
# Source text: as §1
# [13] = system: E. faecium CL 5242 (VanA); experiment: as above; assay type: cell-based
# Source text: as §1
# [14] = system: MRCNS (S. epi.) CL 3069; experiment: as above; assay type: cell-based
# Source text: as §1
# [15] = system: MRCNS (S. hom.) CL 227; experiment: as above; assay type: cell-based
# Source text: as §1
# [16] = system: MRCNS (S. haem.) CL 171; experiment: as above; assay type: cell-based
# Source text: as §1
# [17] = system: MRCNS (S. hom.) CL 546; experiment: as above; assay type: cell-based
# Source text: as §1
# [18] = system: MRCNS (S. haem.) CL 202; experiment: as above; assay type: cell-based
# Source text: as §1
# [19] = system: methicillin-sensitive Staphylococcus aureus (MSSA) strain MB2985; details: due to binding of the antibiotic; cited from earlier work
molecule,measurement,setting,value
"CC1(C)S[C@@H]2[C@H](NC(=O)[C@H](N)c3ccccc3)C(=O)N2[C@H]1C(=O)O [Amp, ampicillin]",Phenotype Amp,[1],R (≧0.5)
same,Phenotype Amp,[2],R (≧0.5)
same,Phenotype Amp,[3],R (≧0.5)
same,Phenotype Amp,[4],S (≦0.25)
same,Phenotype Amp,[5],R (≧0.5)
same,Phenotype Amp,[6],R (≧16)
same,Phenotype Amp,[7],R (≧16)
same,Phenotype Amp,[8],S (≦8)
same,Phenotype Amp,[9],R (≧16)
same,Phenotype Amp,[10],S (≦8)
same,Phenotype Amp,[11],S (≦8)
same,Phenotype Amp,[12],S (≦8)
same,Phenotype Amp,[13],R (≧16)
"C[C@@H](O)[C@H]1C(=O)N2C(C(=O)O)=C(SCCN=CN)C[C@H]12 [Ipm, imipenem]",Phenotype Ipm,[1],R (≧16)
same,Phenotype Ipm,[2],R (≧16)
same,Phenotype Ipm,[3],R (≧16)
same,Phenotype Ipm,[4],S (≦4)
same,Phenotype Ipm,[5],R (≧16)
same,Phenotype Ipm,[14],R (≧16)
same,Phenotype Ipm,[15],R (≧16)
same,Phenotype Ipm,[16],R (≧16)
same,Phenotype Ipm,[17],R (≧16)
same,Phenotype Ipm,[18],R (≧16)
CCSC1=C(C(=O)O)N2C(=O)[C@H]([C@@H](C)O)[C@H]2S1 [Schering 29482],activity in the presence of Human Serum Albumin or Fraction V,[19],reduced activity
"CN[C@H](CC(C)C)C(=O)N[C@H]1C(=O)N[C@@H](CC(N)=O)C(=O)N[C@H]2C(=O)N[C@H]3C(=O)N[C@H](C(=O)N[C@H](C(=O)O)c4cc(O)cc(O)c4-c4cc3ccc4O)[C@H](O)c3ccc(c(Cl)c3)Oc3cc2cc(c3O[C@@H]2O[C@H](CO)[C@@H](O)[C@H](O)[C@H]2O[C@H]2C[C@](C)(N)[C@H](O)[C@H](C)O2)Oc2ccc(cc2Cl)[C@H]1O [Van, vancomycin]",Phenotype Van,[1],I (8-16)
same,Phenotype Van,[2],S (≦4)
same,Phenotype Van,[3],S (≦4)
same,Phenotype Van,[4],S (≦4)
same,Phenotype Van,[5],S (≦4)
same,Phenotype Van,[14],S (≦4)
same,Phenotype Van,[15],S (≦4)
same,Phenotype Van,[6],R (≧32)
same,Phenotype Van,[16],S (≦4)
same,Phenotype Van,[7],R (≧32)
same,Phenotype Van,[8],I (8-16)
same,Phenotype Van,[17],S (≦4)
same,Phenotype Van,[9],S (≦4)
same,Phenotype Van,[10],S (≦4)
same,Phenotype Van,[11],R (≧32)
same,Phenotype Van,[12],R (≧32)
same,Phenotype Van,[13],R (≧32)
same,Phenotype Van,[18],S (≦4)
gentamicin,Phenotype Gent,[1],R (≧16)
same,Phenotype Gent,[2],R (≧16)
same,Phenotype Gent,[3],S (≦4)
same,Phenotype Gent,[4],S (≦4)
same,Phenotype Gent,[6],R (>500)
same,Phenotype Gent,[7],R (>500)
same,Phenotype Gent,[8],R (>500)
same,Phenotype Gent,[9],S (≦500)
same,Phenotype Gent,[10],S (≦500)
same,Phenotype Gent,[11],S (≦500)
same,Phenotype Gent,[12],R (>500)
same,Phenotype Gent,[13],R (>500)
